Test results: US20120277312A1, “Ethylgallate and Related Compounds as a Treatment for Sepsis and Septic Shock” (priority 2009, published 2012)

Columns and labels:
[1] = test system: lysozyme-induced myocardial depression; experiment: Lysozyme-induced myocardial depression, in-vitro experiments; conditions: previous in-vitro experiments
Description: Usually, when one increases the blood pressure in septic shock, there is the potential for stroke-volume and cardiac out to fall, since the heart has to pump against a greater load. Particularly, in septic shock, cardiac function is depressed.

non-septic dog = experiment: Ethyl gallate infusion in non-septic dogs; assay type: in vivo
Description: The effect of ethyl-gallate treatment on hemodynamics in the non-septic animal was different from that found in the septic animal. In this protocol, 5 grams of ethyl-gallate were given in a similar manner over the course of the 5 hr treatment-phase of the study.
We have thus far studied 5 dogs in septic shock in which ethyl gallate was infused. We have compared the results obtained in this group with those found in septic animals (n=5) in which this treatment was not given. In addition, in preliminary experiments, we have looked at the effect of ethyl gallate infusion on hemodynamics in non-septic animals (n=3). In a time control non-septic group in which placebo (normal saline solution) was given, we have studied one animal.
The purpose of this study was to determine whether ethyl-gallate could reverse the fall in MAP that occurs in this sepsis model. Ethyl gallate was infused after MAP pressure fell approximately 30 to 40% from the baseline value in which this decline in MAP was not responsive to volume infusion to return Pwp to the baseline value (septic shock condition). This approach would be consistent with that observed in the clinical situation in which vasopressors, such as norepinephrine would be given at this interval. In the two sepsis groups, the animals were allocated in randomized fashion in which one received ethyl-gallate and volume infusion, while in the other, volume infusion alone was given. In the two non-sepsis groups, one received ethyl-gallate while the other received placebo treatment. In the non-sepsis groups, only maintenance volume for anesthesia and for placebo drugs was given over the course of the experiment.

[2] = Hydrogen peroxide scavenging (Amplex Red assay, electrochemical techniques, glucosidase/glucose assay); assay type: biochemical; conditions: multiple methodologies
Description: This generation appears to involve the mechanism described by Wentworth et al in which proteins can utilize water as a catalyst to generate H2O2 (12) Once formed by lysozyme, H2O2 then reacts with intrinsic catalase to form a species of catalase termed Compound I (2) Compound I then acts to generate cyclic-guanosine monophosphate which in turn causes vasodilation. […] These as well as other mechanisms may account for the efficacy of ethyl-gallate treatment in septic shock.

[3] = non-septic dogs, 5 grams over 5 hr
[4] = non-septic dogs, ethyl-gallate infusion

CCOC(=O)c1cc(O)c(O)c(O)c1 [ethyl gallate]
prevention of lysozyme-induced myocardial depression [1]: prevents | heart rate effect (non-septic dog; non-septic dog, after infusion, FIG. 7): slight tachycardia | SVR as compared with pre-treatment (non-septic dog; [3]): decrease | change in MAP (non-septic dog; [3]): did not cause a change | CO (non-septic dog; [4]): appeared to increase | SV (non-septic dog; [4]): appeared to increase | SW (non-septic dog; [4]): appeared to increase | scavenging of hydrogen peroxide [2]: can scavenge
